Laboratory results published in article PMC7614683, “A small molecule PI3Kα activator for cardioprotection and neuroregeneration” (Nature, 2023).

Columns and labels:
human p110α/p85α (PI3Kα) = biological target: T1, human p110α/p85α (PI3Kα) (Homo sapiens, UniProt P42336); assay: ADP-Glo in vitro lipid kinase assay, PI3Kα; assay type: biochemical; settings: for Maximum activity relative to 1938 / Maximum activity relative to pY control: SI Table 3; for EC50: SI Table 3, 1938 analogues, read-out: EC50; for reduction in activity: relative to 1938
T1 construct: Full-length human p110α was expressed either in a complex with full-length human p85α (for HTS, biochemistry and HDX-MS); 6xHis tag followed by TEV protease site (N); host or cells: Spodoptera frugiperda Sf9, baculovirus
Experimental: Kinase reactions were performed with ADP-Glo kinase assay kit (Promega Corporation). The enzyme, substrate and compounds were diluted in reaction buffer (20 mM HEPES, 50 mM NaCl, 50 mM KCl, 3 mM MgCl2, 1 mM EGTA, 1 mM TCEP, pH 7.4). Final concentrations of PI3Kα and PI3Kδ used were 25 nM and 50 nM for PI3Kβ. Liposomes (5% brain PI(4,5)P2, 20% brain phosphatidylserine, 45% brain phosphatidylethanolamine, 15% brain phosphatidylcholine, 10% cholesterol, 5% sphingomyelin (Avanti Polar Lipids)) were used at a final concentration of 1 mg/ml.
For the HTS, the reaction mixture contained 0.75 μl enzyme, 15 nl compound and/or pY and 0.75 μl of liposome substrate mixed with ATP. […] (GL Biochem, Shanghai Ltd). ATP was used at a final concentration of 500 μM unless otherwise stated. The final DMSO concentration in the assay was 1%. The experiments were performed at room temperature for 3 h using 1536-well white-polystyrene plates (Corning #3729) before addition of 2 μl of ADP-Glo R1 to terminate the reaction. The plate was incubated for 40 min, followed by addition of 4 μl of ADP-Glo R2 and incubated further for 60 min in the dark. Luminescence was read using an EnVision (PerkinElmer) plate reader. All analyses were performed using Genedata Screener.
For re-screening of HTS hits and routine compound profiling, the reaction mixture contained 2 μl PI3K enzyme, 2 μl compound and/or pY and 2 μl of liposome substrate mixed with ATP. ATP was used at a final concentration of 500 μM for PI3Kα and PI3Kβ and at 200 μM for PI3Kδ, unless otherwise stated. The final DMSO concentration in the assay was 1%. The experiments were performed at room temperature for 3 h using 384 white-polystyrene plates (Corning #3824) before addition of 6 μl of ADP-Glo R1 to terminate the reaction. The plate was incubated for 45 min, followed by addition of 12 μl of ADP-Glo R2 and incubated further for 60 min in the dark. Luminescence was read using a Sense (Hidex) plate reader. […] All analyses were performed using GraphPad Prism 7.
For characterisation of the effects of 1938 on in vitro PI3K enzymology, all reactions were performed at room temperature with 384 white-polystyrene plates (Corning #3574). The final DMSO concentration in the assay was between 0.5%-1.8%. The reaction mixture contained 2 μl PI3K enzyme, 2 μl compound and/or pY and 2 μl of liposome substrate mixed with ATP. ATP was used at a final concentration of 200 μM, unless otherwise stated.

PI3Kα-KO MEFs = assay: pAKT S473 western blot, PI3Kα-KO MEFs; assay type: cell-based, mouse; settings: TGX-221 0.2 μM
Experimental: Unless otherwise indicated, western blotting was performed with ECL detection. For time course studies, A549 cells were seeded at 250,000 cells per well in 6-well plates in RPMI (10% FBS + 1 mM Na-Pyruvate + 1% P/S) and allowed to adhere overnight. The next day they were serum-starved for 4 h prior to treatment with 100 nM insulin or 5 μM 1938, for the indicated time (5 min to 48 h) at 37°C, 5% CO2. For 1938 titration assays in MEFs, cells were seeded at 150,000 cells per well in 6-well plates and allowed to adhere overnight. The next day they were serum-starved for 4 h prior to treatment with insulin (1 μM), 1938 (0.2 to 30 μM, final DMSO concentration of 1.5%) or inhibitors (final DMSO concentration of ≤1.5%) for 15 min at 37°C, 5% CO2. Cells were washed twice with cold PBS and lysed using cold RIPA buffer (25 mM Tris.HCl pH 7.6, 150 mM NaCl, 1% NP-40, 1% sodium deoxycholate, 0.1% SDS supplemented with protease/phosphatase inhibitor cocktail from Merck). To remove cell debris, homogenates were spun at 13,000 rpm for 15 min at 4°C and the supernatant fraction recovered. Protein concentration was determined by colorimetric assay (BCA assay, Promega). Protein extracts were resolved by SDS-PAGE, transferred to nitrocellulose membranes, and incubated overnight at 4°C with specific antibodies as follows: anti-vinculin (Sigma #V9131) and the following antibodies from Cell Signaling Technology (CST): pAKT-S473 (CST #9271), pS6-S240/244 (CST #2215), pPRAS40-T246 (CST #2640) and total S6 (CST #2317). Primary ntibodies were used at 1:1000 dilution except anti-vinculin (1:10000). Secondary antibodies are also from Cell Signalling Technology: Anti rabbit IgG, HRP linked Antibody (CST #7074S), Anti mouse IgG, HRP linked Antibody (CST #7076S). Raw and uncropped blots are shown in Supplementary Fig. 1.

MEFs = assay: Phosphoinositide quantification by mass spectrometry, MEFs; assay type: cell-based, mouse; settings: 1938 at 5 μM, PDGF 20 ng/ml 2 min
Experimental: (§1) A549 cells (5.10^5) or wild-type MEFs (3.10^5) were plated in complete media onto 3.5 cm dishes or 60 mm dishes respectively for 24 h, prior to FCS-free starvation media for 16 h. MEFs, in addition, were supplemented with arachidonic acid in the FCS-free starvation media as previously described. […] Reactions were terminated in 600 μl ice-cold 1 M HCl and cells scraped and resuspended, then divided into two equal samples in eppendorfs. […] The data are shown as response ratios, calculated by normalizing the multiple reaction monitoring (MRM)-targeted lipid integrated response area to that of a known amount of relevant internal standard. To account for any cell input variability, PIP3 response ratios were normalized to C38:4-PI response ratios; while PI(3,4)P2 response ratios were normalised to PI(4,5)P2 response ratios. Data shown are mean ±SD for n ≥3, except for non-DMSO control in MEF PIP3 measurements where n=1.

A549 cells = assay: Phosphoinositide quantification by mass spectrometry, A549; assay type: cell-based, human; settings: A549, 2 min
Experimental: as §1

T1 sequence (P42336 whole entry): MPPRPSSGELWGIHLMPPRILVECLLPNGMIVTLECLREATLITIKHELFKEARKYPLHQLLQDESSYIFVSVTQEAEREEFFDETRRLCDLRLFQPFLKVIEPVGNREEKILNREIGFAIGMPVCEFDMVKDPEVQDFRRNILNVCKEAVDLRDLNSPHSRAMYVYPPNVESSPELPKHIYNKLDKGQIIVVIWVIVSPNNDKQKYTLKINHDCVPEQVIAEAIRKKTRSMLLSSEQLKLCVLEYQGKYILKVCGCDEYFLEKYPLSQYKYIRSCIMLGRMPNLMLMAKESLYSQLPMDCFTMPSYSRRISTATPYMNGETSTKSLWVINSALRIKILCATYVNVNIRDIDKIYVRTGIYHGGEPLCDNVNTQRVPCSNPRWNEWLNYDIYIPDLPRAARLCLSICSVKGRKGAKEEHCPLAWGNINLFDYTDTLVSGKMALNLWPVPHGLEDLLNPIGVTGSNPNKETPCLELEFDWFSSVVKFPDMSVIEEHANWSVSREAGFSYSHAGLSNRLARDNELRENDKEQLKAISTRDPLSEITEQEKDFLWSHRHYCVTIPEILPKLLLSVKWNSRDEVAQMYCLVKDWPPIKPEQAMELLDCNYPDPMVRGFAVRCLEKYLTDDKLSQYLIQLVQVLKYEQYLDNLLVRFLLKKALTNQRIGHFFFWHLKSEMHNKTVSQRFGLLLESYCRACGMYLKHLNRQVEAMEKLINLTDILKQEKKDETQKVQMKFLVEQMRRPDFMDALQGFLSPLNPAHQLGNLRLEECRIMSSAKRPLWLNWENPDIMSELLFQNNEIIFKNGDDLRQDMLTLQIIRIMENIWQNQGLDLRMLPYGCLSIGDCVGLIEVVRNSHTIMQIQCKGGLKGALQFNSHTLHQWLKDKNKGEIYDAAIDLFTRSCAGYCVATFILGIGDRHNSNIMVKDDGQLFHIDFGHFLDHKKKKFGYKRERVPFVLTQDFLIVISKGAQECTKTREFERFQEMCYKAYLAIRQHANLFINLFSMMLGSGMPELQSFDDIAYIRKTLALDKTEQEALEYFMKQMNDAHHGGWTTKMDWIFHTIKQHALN
T1 sequence (P27986 whole entry partner): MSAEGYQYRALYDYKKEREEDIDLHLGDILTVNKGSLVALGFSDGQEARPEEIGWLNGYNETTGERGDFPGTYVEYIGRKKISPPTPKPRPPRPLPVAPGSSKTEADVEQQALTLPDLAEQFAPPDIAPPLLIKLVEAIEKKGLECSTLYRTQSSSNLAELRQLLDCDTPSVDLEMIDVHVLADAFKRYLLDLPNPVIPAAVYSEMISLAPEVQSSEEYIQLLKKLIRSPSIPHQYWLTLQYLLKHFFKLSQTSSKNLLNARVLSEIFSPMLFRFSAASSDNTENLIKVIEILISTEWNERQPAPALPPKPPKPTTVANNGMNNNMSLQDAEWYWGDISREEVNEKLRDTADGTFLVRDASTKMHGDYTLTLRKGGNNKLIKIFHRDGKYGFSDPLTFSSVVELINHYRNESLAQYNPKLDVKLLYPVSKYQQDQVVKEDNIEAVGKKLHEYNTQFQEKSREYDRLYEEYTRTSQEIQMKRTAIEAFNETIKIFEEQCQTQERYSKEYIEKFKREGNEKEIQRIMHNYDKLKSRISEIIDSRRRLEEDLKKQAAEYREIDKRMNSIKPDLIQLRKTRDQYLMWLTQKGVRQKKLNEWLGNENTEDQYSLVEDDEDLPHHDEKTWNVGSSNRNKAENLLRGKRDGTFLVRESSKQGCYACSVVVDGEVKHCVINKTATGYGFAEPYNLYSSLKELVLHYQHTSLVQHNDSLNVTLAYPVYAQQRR

Row | Compound | Maximum activity relative to 1938 (human p110α/p85α (PI3Kα)) | Maximum activity relative to pY control (human p110α/p85α (PI3Kα)) | further results
1 | COc1cc(Nc2cc(Nc3cccc4c3N(C(C)=O)CC4)ccn2)cc(OC)c1OC [Compound 1887] | 80% |  | EC50 (human p110α/p85α (PI3Kα)): 36 ± 5 µM
2 | COc1cc(N2CCN(C)CC2)ccc1Nc1cc(Nc2cccc3c2N(C(C)=O)CC3)ccn1 [Compound 1889] | 102% |  | EC50 (human p110α/p85α (PI3Kα)): 56 ± 24 µM
3 | CC(=O)N1CCc2cccc(Nc3ccnc(Nc4ccccc4)c3)c21 [Compound 2016] | 9% | 36 ± 8% | 
4 | CCN1CCN(c2ccc(Nc3cc(Nc4ccncn4)ccn3)cc2)CC1 [Compound 2106] | 4% | 14 ± 13% | reduction in activity (human p110α/p85α (PI3Kα)): > 95%
5 | CCN1CCN(c2ccc(Nc3nccc(Nc4cccc5c4N(C(C)=O)CC5)n3)cc2)CC1 [Compound 2152] | 4% | 16 ± 8% | reduction in activity (human p110α/p85α (PI3Kα)): > 95%
6 | Cc1cc(C(C)Nc2ccccc2)c2nc(N3CCOCC3)cc(=O)n2c1 (stereo not drawn) [TGX-221, reference compound] |  |  | effect on insulin-stimulated pAKT^S473 (PI3Kα-KO MEFs): sensitivity of insulin-stimulated pAKT^S473
7 | PDGF |  |  | PI(3,4)P2 signal by mass spectrometry (MEFs): detected; PIP3 response (A549 cells): no PIP3 induced
